# Measurements from patent US12286618B2, “Lactic acid bacteria” (priority 2018, dated 2025).
# Target: Streptococcus thermophilus glucokinase (GlcK) DGCC7710 variant E275K, strain DSM32587 (DGCC12534), SEQ ID NO: 22 (Streptococcus thermophilus, UniProt Q5M4Y5, E275K)
# Conditions: substrate glucose (0, 5, 10, 15, 20 mM); 1 mM ATP; pH 7.2; 30° C.; crude extract; mean of three independent experiments
# Description: A fresh overnight culture of the Streptococcus thermophilus strain to be assayed in M17 containing 30 g/L lactose is obtained and used to inoculate at 1% (vol/vol) 10 ml of fresh M17 30 g/L lactose. Cells are harvested by centrifugation (6000 g, 10 min, 4° C.) at a 600 nm optical density (OD600) of 0.8+/−0.2, washed in 5 ml cold GLCK buffer (5 mM MgCl2, 10 mM K2HPO4/KH2PO4 [pH 7.2]), and resuspended in 500 μl cold GLCK buffer. EDTA-free protease inhibitors “cOmplete™” (Roche, supplier reference 04693132001) is added in GLCK buffer as described by the provider. […] Total protein content is determined by using the FLUKA Protein Quantification Kit-Rapid (ref 51254). The glucokinase activity in the cell extracts is determined spectrophotometrically by a glucose-6-phosphate dehydrogenase (G-6PDH, EC1.1.1.49): NADPH-coupled assay (Porter et al., 1982), essentially as described by Pool et al. (2006). […] The optical density at 340 nm is measured for 5 minutes by using a Synergy HT multi-detection microplate reader (BIO-TEK). […]
# A fresh overnight culture of a Streptococcus thermophilus strain in M17 containing 30 g/L lactose was obtained and used to inoculate at 1% (vol/vol) 10 ml of fresh M17 30 g/L lactose. […] Total protein content was determined by using the FLUKA Protein Quantification Kit-Rapid (ref 51254). […]
# Sequence of Streptococcus thermophilus glucokinase (GlcK) DGCC7710 variant E275K, strain DSM32587 (DGCC12534), SEQ ID NO: 22 (Q5M4Y5 entry or part of it E275K): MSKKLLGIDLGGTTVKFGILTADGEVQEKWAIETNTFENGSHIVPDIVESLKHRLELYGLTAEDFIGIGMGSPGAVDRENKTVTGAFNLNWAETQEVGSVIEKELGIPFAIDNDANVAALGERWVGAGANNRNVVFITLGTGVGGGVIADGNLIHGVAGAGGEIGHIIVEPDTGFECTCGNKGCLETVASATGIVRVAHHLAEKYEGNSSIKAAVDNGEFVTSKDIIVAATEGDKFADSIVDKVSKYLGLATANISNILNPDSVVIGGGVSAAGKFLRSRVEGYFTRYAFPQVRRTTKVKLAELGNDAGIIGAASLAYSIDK
compound,measurement,value
OC[C@H]1OC(O)[C@H](O)[C@@H](O)[C@@H]1O (stereo partly shown) [glucose],Vmax Glucokinase,914 U/g total protein extract
